Measurements published in patent publication US9168269B2, “Inhibitors of long and very long chain fatty acid metabolism as broad spectrum anti-virals” (THE TRUSTEES OF PRINCETON UNIVERSITY, priority 2010, dated 2015).
Several values for one entry are separate records, joined by “and”; a condition that tells them apart may be missing. Equal values may be shown once. Read-outs that look alike come from different tables or passages of the source.

How the values were obtained:
[1] = tested on: HIV-1; test: proposed combination of TOFA and enfurtivide, HIV-1-infected C8166 cells; type: cell-based; conditions: for magnitude of the therapeutic effect: 10 μg/mL TOFA
Excerpt: Non-limiting examples of assays that could be performed to assess the effect of a combination of an ACC inhibitor and an entry inhibitor on HIV-1 replication follow. Assays for TOFA-mediated antiviral activity using HIV-1-infected C8166 cells have been described in (WO 2009/023059). In each assay, various concentrations of TOFA can be combined with various concentrations of enfurtivide and assayed for their effect on virus replication. In one preferred embodiment, a physiological concentration of enfurtivide is held constant as the dose of TOFA is increased. Control cultures are treated with no drug, enfurtivide alone or the various concentrations of TOFA alone. Samples are taken at 24, 48, 72 and 96 hours after initiation of drug treatment. The antiviral effect of enfurtivide plus each concentration of TOFA is then compared to the activity of enfurtivide alone or the various concentrations of TOFA alone. Uptake of neutral red dye is used to determine the relative level of toxicity in duplicate cultures at each time a sample is harvested. […] At 10 μg/mL of TOFA, the magnitude of the therapeutic effect is increased from ^˜10-fold in the absence of enfurtivide to ^˜100-fold in its presence. […] Similar results are obtained for other entry inhibitors.

[2] = tested on: HCV JFH1 strain derivative; test: release of infectious HCV from Huh7.5 cells, TCID50 assay
Protocol: Huh7.5 cells were infected with a derivative of HCV JFH1 strain (MOI=0.1 TCID50/cell). Infected cells were maintained in medium containing 10% fetal calf serum plus DMSO (0 nM triacsin C) or triacsin C at the indicated concentrations. Media were harvested at 72 h and infectious virus was quantified by standard TCID50 assay on Huh7.5 cells.
Virus yield in the medium at 72 h after infection was determined.
Huh7.5 cells were infected a derivative of HCV JFH1 strain (MOI=0.1 TCID50/cell) Infected cells were maintained in medium containing 10% fetal calf serum plus DMSO (0 μg/ml TOFA) or TOFA at the indicated doses. Media were harvested at 72 h and infectious virus was quantified by standard TCID50 assay on Huh7.5 cells.
Huh7.5 cells which was infected with HCV and treated with indicated amounts of TOFA (FIG. 21).

[3] = tested on: host cell
[4] = tested on: influenza A; type: cell-based; conditions: for magnitude of the therapeutic effect: 10 μg/mL TOFA
[5] = tested on: viral growth and/or replication; test: proposed combination of TOFA and ELOVL inhibitor, virus replication; type: cell-based; conditions: presence of a therapeutically effective concentration of ELOVL inhibitor
[6] = tested on: HCMV; test: proposed combination of TOFA and triacsin C, virus replication; type: cell-based, human cytomegalovirus; conditions: for magnitude of the therapeutic effect: 10 μg/mL TOFA
[7] = tested on: HCMV AD169 strain; test: microbe, parasite or virus in culture; type: cell-based, human cytomegalovirus; conditions: 5 μg/ml

CCCCCCCCCCCCCCOc1ccc(C(=O)O)o1 [TOFA]
magnitude of the therapeutic effect ([1]; absence of enfurtivide): ~10 fold | magnitude of the therapeutic effect ([1]; presence of enfurtivide): ~100 fold | concentration of TOFA required to produce a 10-fold reduction in HIV-1 replication ([1]; TOFA alone): ~10 μg/mL | concentration of TOFA required to produce a 10-fold reduction in HIV-1 replication ([1]; presence of a pharmacologically acceptable concentration of enfurtivide): < 5 μg/mL | inhibition of release of infectious HCV particles ([2]; 5 μg/ml): > 500 fold | inhibition of release of infectious HCV particles ([2]; 10 μg/ml): > 1000 fold | host cell toxicity, neutral red dye assay ([3]; combined use of TOFA and enfurtivide): does not increase host cell toxicity | host cell toxicity, neutral red dye assay ([3]; combined use of TOFA and oseltamivir): does not increase host cell toxicity | host cell toxicity, neutral red dye assay ([3]; combined use of TOFA and triacsin C): does not increase host cell toxicity | magnitude of the therapeutic effect ([4]; absence of oseltamivir): ~10 fold | magnitude of the therapeutic effect ([4]; presence of oseltamivir): ~100 fold | concentration of TOFA required to produce a 10-fold reduction in influenza A replication ([4]; TOFA alone): ~10 μg/mL | concentration of TOFA required to produce a 10-fold reduction in influenza A replication ([4]; presence of a pharmacologically acceptable concentration of oseltamivir): < 5 μg/mL | reduction of the TOFA concentration required to reduce viral growth and/or replication by 10-fold [5]: ≥ 2 fold | concentration of TOFA required to produce a 10-fold reduction in HCMV replication [6]: ~10 μg/mL and < 5 μg/mL | magnitude of the therapeutic effect ([6]; absence of triacsin C): ~10 fold | magnitude of the therapeutic effect ([6]; presence of triacsin C): ~100 fold | inhibition of HCMV replication [7]: > 500 fold
